Reference: ChEMBL document CHEMBL2086350, “Structure-activity relationship and antitumor activity of thio-benzodiazepines as p53-MDM2 protein-protein interaction inhibitors” (Eur J Med Chem, 2012)

What was measured:
SAOS-2 = assay: Antiproliferative activity against human p53-deficient Saos2 cells after 72 hrs by MTT assay; conditions: SAOS-2, 72 h
A549 = assay: Antiproliferative activity against human A549 cells expressing wild type p53 after 72 hrs by MTT assay; conditions: A549, 72 h
NCI-H1299 = assay: Antiproliferative activity against human p53-deficient NCI-H1299 cells after 72 hrs by MTT assay; conditions: NCI-H1299, 72 h
U2OS = assay: Antiproliferative activity against human U2OS cells expressing wild type p53 after 72 hrs by MTT assay
[1] = biological target: E3 ubiquitin-protein ligase Mdm2 (Homo sapiens, UniProt Q00987); assay: Inhibition of MDM2 binding domain assessed as inhibition of p53 binding to MDM2 after 1 hr by fluorescence polarization assay
Sequence of E3 ubiquitin-protein ligase Mdm2 (Q00987 whole entry, the tested form may be a part): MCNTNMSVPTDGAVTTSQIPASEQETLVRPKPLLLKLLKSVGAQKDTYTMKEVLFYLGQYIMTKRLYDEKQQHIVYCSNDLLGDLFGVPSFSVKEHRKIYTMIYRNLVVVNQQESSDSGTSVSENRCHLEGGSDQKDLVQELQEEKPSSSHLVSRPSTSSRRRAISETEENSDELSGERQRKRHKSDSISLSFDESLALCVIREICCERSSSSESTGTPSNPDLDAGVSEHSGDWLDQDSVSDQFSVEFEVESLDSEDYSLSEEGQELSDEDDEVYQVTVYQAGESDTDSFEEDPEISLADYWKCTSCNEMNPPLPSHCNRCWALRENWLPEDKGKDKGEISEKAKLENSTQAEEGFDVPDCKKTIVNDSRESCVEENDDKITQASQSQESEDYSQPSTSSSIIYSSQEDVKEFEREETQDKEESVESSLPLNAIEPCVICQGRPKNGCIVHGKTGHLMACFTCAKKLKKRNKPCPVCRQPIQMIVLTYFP

Compound | IC50 (SAOS-2) [µM] | IC50 (A549) [µM] | IC50 (NCI-H1299) [µM] | IC50 (U2OS) [µM] | Ki [1] [µM]
COC(=O)C(c1ccc(Cl)cc1)N1C(=O)c2ccc(F)cc2NC(=S)C1c1ccc(Cl)cc1 (centres undefined) | 6.59 | 8.44 | 16.5 | 12 | 
COc1ccc(C2=N[C@@H](c3ccc(Cl)cc3)[C@@H](c3ccc(Cl)cc3)N2C(=O)N2CCNC(=O)C2)c(OC(C)C)c1 [NUTLIN-3] | 12.1 | 15 | 20.4 | 19.6 | 
COC(=O)C(c1ccc(Cl)cc1)N1C(=O)c2ccc(Br)cc2NC(=S)C1c1ccc(Cl)cc1 (centres undefined) | 11 | > 100 | 35.4 | 35.7 | 3.98
COC(=O)C(c1ccc(F)cc1)N1C(=O)c2cc(Cl)ccc2NC(=S)C1c1ccc(Cl)cc1 (centres undefined) | 6.48 | 19.7 | 29.7 | 7.23 | 
COC(=O)C(c1ccc(Cl)cc1)N1C(=O)c2cccc(OC)c2NC(=S)C1c1ccc(Cl)cc1 (centres undefined) | > 100 | > 100 | > 100 | > 100 | 8.18
COC(=O)C(c1ccc(Cl)cc1)N1C(=O)c2cc(F)c(F)cc2NC(=S)C1c1ccc(Cl)cc1 (centres undefined) | 3.84 | 11.3 | 5.73 | 2.61 | > 100
COC(=O)C(c1ccc(Cl)cc1)N1C(=O)c2ccc(Cl)cc2NC(=S)C1c1ccc(Cl)cc1 (centres undefined) | 11.1 | 37.2 | 16.5 | 12.1 | 1.37
COC(=O)C(c1ccc(Cl)cc1)N1C(=O)c2ccc(OC)cc2NC(=S)C1c1ccc(Cl)cc1 (centres undefined) | 20 | > 100 | > 100 | 35.3 | > 100
COC(=O)C(c1ccc(Cl)cc1)N1C(=O)c2cc(Cl)ccc2NC(=S)C1c1ccc(Cl)cc1 (centres undefined) | 8.91 | 18.7 | 24.7 | 3.5 | 0.721
COC(=O)C(c1ccc(F)cc1)N1C(=O)c2ccc(Cl)cc2NC(=S)C1c1ccc(F)cc1 (centres undefined) | 12.7 | 25.6 | > 100 | 44.3 | 1.72
COC(=O)C(c1ccc(Cl)cc1)N1C(=O)c2cc(C)ccc2NC(=S)C1c1ccc(Cl)cc1 (centres undefined) | 25.5 | > 100 | 73.6 | 32.7 | 37.7
COC(=O)C(c1ccc(F)cc1)N1C(=O)c2ccc(F)cc2NC(=S)C1c1ccc(Cl)cc1 (centres undefined) | 32.1 | 19.4 | 25 | 28 | 1.05
COC(=O)C(c1ccc(Cl)cc1)N1C(=O)c2ccc(C(F)(F)F)cc2NC(=S)C1c1ccc(Cl)cc1 (centres undefined) | 6.78 | 26.9 | 11.1 | 5.69 | 
COC(=O)C(c1ccc(Cl)cc1)N1C(=O)c2cc(F)ccc2NC(=S)C1c1ccc(Cl)cc1 (centres undefined) | 11.9 | 12.9 | 14.5 | 7.53 | 
COC(=O)C(c1ccc(Cl)cc1)N1C(=O)c2ccc(Cl)cc2NC(=S)C1c1ccc(OC)cc1 (centres undefined) | > 100 | > 100 | > 100 | 33.9 | 11.9
COC(=O)C(c1ccc(Cl)cc1)N1C(=O)c2ccc(Cl)cc2NC(=S)C1c1ccc(C(F)(F)F)cc1 (centres undefined) | 9.23 | 23.7 | 39.5 | 27.4 | 
COC(=O)C(c1ccc(Cl)cc1)N1C(=O)c2ccc(NCc3ccc(C(F)(F)F)cc3)cc2NC(=S)C1c1ccc(Cl)cc1 (centres undefined) | 25.3 | 25.7 | 42.6 | 15.9 | 6.7
COC(=O)C(c1ccc(Cl)cc1)N1C(=O)c2cccc(Cl)c2NC(=S)C1c1ccc(Cl)cc1 (centres undefined) | 61.8 | > 100 | > 100 | 88.5 | > 100
COC(=O)C(c1ccc(Cl)cc1)N1C(=O)c2cccc(C)c2NC(=S)C1c1ccc(Cl)cc1 (centres undefined) | 19.1 | > 100 | 73.3 | 27.8 | > 100
COC(=O)C(c1ccc(F)cc1)N1C(=O)c2ccc(C(F)(F)F)cc2NC(=S)C1c1ccc(Cl)cc1 (centres undefined) | 13.7 | 9.44 | 14 | 11.8 | 3.02
COC(=O)C(c1ccc(Cl)cc1)N1C(=O)c2ccc(Cl)cc2N=C(SC)C1c1ccc(Cl)cc1 (centres undefined) | > 100 | > 100 | > 100 | 67.6 | > 100
CCOC(=O)CSC1=Nc2cc(OC)ccc2C(=O)N(C(C(=O)OC)c2ccc(Cl)cc2)C1c1ccc(Cl)cc1 (centres undefined) | > 100 | > 100 | > 100 | > 100 | 21.1
